Ends that are not written are not given here. * marks the point of attachment. For = O=C*

Data set [1] in a line: Gel filtration of LPS, BacSp222 and complexes. The data set is classed as physicochemical. On the procedure:
Gel filtration was conducted on a Superdex 200 Increase 10/300 GL (Cytiva, Marlborough, MA, USA) column using an UltiMate 3000 HPLC apparatus (Thermo, Waltham, MA, USA). The separations were performed at room temperature in 50 mM NH4COOH pH 5.8 at a flow rate of 0.6 mL/min. The spectrophotometric detection was conducted at 215 and 280 nm, and before separations, the column was calibrated using tryptophan (204 Da), […] (75 kDa), aldolase (158 kDa), ferritin (440 kDa), and Blue Dextran 2000 (2 MDa). The following samples were separated: (1) 375 μg of LPS O55:B5 (IEC), (2) 375 μg of LPS O111:B4 (PE), (3) 75 μg of BacSp222, (4) 375 μg of LPS O55:B5 (IEC) + 75 μg BacSp222, and (5) 375 μg of LPS O111:B4 (PE) + 75 μg BacSp222. All above solutions were prepared in phosphate-buffered saline (PBS) without Ca^2+ and Mg^2+ (Gibco, Paisley, UK) and were preincubated before separation for 15 min at 37 °C. The fractions containing LPS O55:B5 alone and LPS-BacSp222 complex, visible as peaks eluting at 12.5–14 min and 12.5–16 min, both marked by arrows in Figure , were manually collected, freeze-dried, and subjected to sodium dodecyl sulfate polyacrylamide gel electrophoresis (SDS-PAGE) under reducing conditions. […]
Background: Size exclusion chromatography separates by hydrodynamic size, large species first.

The next data set relates to Gram-positive bacteria. The following applies: pore formation; ref number not given; cited from earlier work. The source says: (§1) A good example of such a multifunctional and immunomodulatory bacteriocin is the peptide BacSp222, produced by an opportunistic canine pathogen, strain 222. BacSp222 is a 50 amino acid long linear peptide encoded on a plasmid and is produced without a leader sequence, retaining a formylated N-terminal methionine. Its amino acid sequence seems to be unique, but the general physicochemical properties of BacSp222 resemble features of a group of several previously described bacteriocins of, predominantly, different staphylococci: lacticins Q and Z, aureocins A53 and AurK411, capidermicin, and epid ...

Another data set deals with mouse immune cells. The following applies: in the presence of IFN-gamma; ref number not given; cited from earlier work.
Description: as §1

The test system of data set [2] is pro-inflammatory cytokines. The following applies: TNF, MCP-1, IL-1-alpha, IL-8; via TLR2/TLR6, MyD88, NF-κB; ref our recent studies; cited from earlier work.
Description: as §1

For “For-MAGLLRFLLSKGRALYNWAKSHVGKVWEWLKSGATYEQIKEWIENALGWR [BacSp222]”, the “BacSp222 peak at 36 min after incubation with LPS” value in data set [1] (375 μg LPS + 75 μg BacSp222, 15 min, 37 °C, peptide referred to as "the bacteriocin") is recorded as “disappears completely”. Further, the “apparent molecular mass, gel filtration (peptide peak)” value in data set [1] (peak at 36 min, Superdex 200 Increase, 50 mM NH4COOH pH 5.8, 0.6 mL/min, 215 nm, room temperature) is given as 5.5 kDa. Moreover, the “bactericidal activity, Gram-positive bacteria” value in the data set with Gram-positive bacteria is “kills a wide range of Gram-positive bacteria”. For the same substance, the “induction of NO secretion” value in the data set with mouse immune cells is given as “capable of stimulating mouse immune cells to express an inducible nitric oxide synthase and, consequently, to secrete nitric oxide (NO)”. In addition, the “induction of pro-inflammatory cytokines” value in data set [2] was “induces the synthesis of many pro-inflammatory cytokines”.

Source of the values: paper PMC12340957, “Interactions between Lipopolysaccharide and Peptide Bacteriocin BacSp222 Influence Their Biological Activities” (ACS Infectious Diseases, 2025).
